Test results reported in PubChem BioAssay (NCI).
Values joined by “and” are separate entries in the source; they are usually repeats but may differ in a detail not shown here. Equal values may be shown once.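 Briefly, cells in 96-well plates were exposed to five compound concentrations for 48 h, and endpoints were estimated by linear interpolation. GI50 = concentration required for 50% inhibition of growth. TGI: concentration producing complete growth inhibition.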

Columns and labels:
Assay in all cases: DTP human tumour cell line panel, 48 h
HOP-62 NSCLC = system: HOP-62 NSCLC
SW-620 colon = system: SW-620 colon
NCI-H522 lung = system: NCI-H522 lung
NCI-H226 lung = system: NCI-H226 lung
HCC-2998 colon = system: HCC-2998 colon
SK-MEL-28 melanoma = system: SK-MEL-28 melanoma
A498 renal = system: A498 renal
ACHN renal = system: ACHN renal
CCRF-CEM leukemia = system: CCRF-CEM leukemia
DU-145 prostate = system: DU-145 prostate

CC(C)[C@]12O[C@H]1[C@@H]1O[C@]13[C@]1(O[C@H]1C[C@H]1C4=C(CC[C@@]13C)C(=O)OC4)[C@@H]2O
GI50 (HOP-62 NSCLC): 0.0248 µM
GI50 (SW-620 colon): < 0.01 µM
GI50 (NCI-H522 lung): 0.0114 µM
TGI (NCI-H522 lung): 0.157 µM and 0.0366 µM
GI50 (NCI-H226 lung): < 0.011 µM
TGI (NCI-H226 lung): 0.0731 µM and 0.12 µM
GI50 (HCC-2998 colon): 0.0212 µM
TGI (HCC-2998 colon): 0.0912 µM and 0.761 µM
GI50 (SK-MEL-28 melanoma): 0.0119 µM
TGI (SK-MEL-28 melanoma): 0.0226 µM and 0.032 µM
GI50 (A498 renal): 0.0274 µM
TGI (A498 renal): 0.0454 µM and 0.0828 µM
GI50 (ACHN renal): 0.0102 µM
TGI (ACHN renal): > 100 µM
GI50 (CCRF-CEM leukemia): 0.0255 µM
TGI (CCRF-CEM leukemia): 0.297 µM
GI50 (DU-145 prostate): 0.0163 µM
TGI (DU-145 prostate): > 100 µM

NC(=O)NNCc1ccccc1
TGI (HOP-62 NSCLC): > 100 µM
TGI (SW-620 colon): > 100 µM
TGI (NCI-H522 lung): > 100 µM
TGI (NCI-H226 lung): > 100 µM
TGI (HCC-2998 colon): > 100 µM
TGI (A498 renal): > 100 µM
TGI (ACHN renal): > 100 µM
TGI (CCRF-CEM leukemia): > 100 µM
TGI (DU-145 prostate): > 100 µM

COc1cc2c(cc1O)CC[C@@H]1[C@@H]2CC[C@]2(C)[C@@H](NCCN(C)C)CC[C@@H]12
GI50 (HOP-62 NSCLC): 0.194 µM
TGI (HOP-62 NSCLC): 0.717 µM
GI50 (SW-620 colon): 0.14 µM
TGI (SW-620 colon): 0.556 µM
GI50 (NCI-H522 lung): 0.108 µM
TGI (NCI-H522 lung): 0.5 µM
GI50 (NCI-H226 lung): 0.698 µM
TGI (NCI-H226 lung): 1.59 µM
GI50 (HCC-2998 colon): 0.22 µM
TGI (HCC-2998 colon): 0.716 µM
GI50 (SK-MEL-28 melanoma): 0.0883 µM
TGI (SK-MEL-28 melanoma): 0.262 µM
GI50 (A498 renal): 0.164 µM
TGI (A498 renal): 0.636 µM
GI50 (ACHN renal): 0.459 µM
TGI (ACHN renal): 0.991 µM
GI50 (CCRF-CEM leukemia): 0.156 µM
TGI (CCRF-CEM leukemia): 0.612 µM
GI50 (DU-145 prostate): 0.119 µM
TGI (DU-145 prostate): 0.423 µM

CCNC(=O)[C@@H]1CCCN2C(=O)CC[C@H](NC(=O)[C@H](Cc3ccc(OP(=O)(O)O)cc3)NC(C)=O)C(=O)N12
GI50 (HOP-62 NSCLC): > 25 µM
TGI (HOP-62 NSCLC): > 25 µM
GI50 (SW-620 colon): > 25 µM
TGI (SW-620 colon): > 25 µM
GI50 (NCI-H522 lung): > 25 µM
TGI (NCI-H522 lung): > 25 µM
GI50 (NCI-H226 lung): > 25 µM
TGI (NCI-H226 lung): > 25 µM
GI50 (HCC-2998 colon): > 25 µM
TGI (HCC-2998 colon): > 25 µM
GI50 (SK-MEL-28 melanoma): > 25 µM
TGI (SK-MEL-28 melanoma): > 25 µM
GI50 (A498 renal): > 25 µM
TGI (A498 renal): > 25 µM
GI50 (ACHN renal): > 25 µM
TGI (ACHN renal): > 25 µM
GI50 (CCRF-CEM leukemia): > 25 µM
TGI (CCRF-CEM leukemia): > 25 µM
GI50 (DU-145 prostate): > 25 µM
TGI (DU-145 prostate): > 25 µM

COc1ccc2oc(=O)cc(C(c3ccc[nH]3)c3ccc[nH]3)c2c1
GI50 (HOP-62 NSCLC): 0.107 µM
TGI (HOP-62 NSCLC): 11.7 µM
GI50 (SW-620 colon): 0.12 µM
TGI (SW-620 colon): 16.8 µM
GI50 (NCI-H522 lung): 0.348 µM
TGI (NCI-H522 lung): 5.88 µM
GI50 (NCI-H226 lung): 0.146 µM
TGI (NCI-H226 lung): 24.4 µM
GI50 (HCC-2998 colon): 0.0973 µM
TGI (HCC-2998 colon): 2.15 µM
GI50 (SK-MEL-28 melanoma): 0.874 µM
TGI (SK-MEL-28 melanoma): 14 µM
GI50 (A498 renal): 0.104 µM
TGI (A498 renal): 0.437 µM
GI50 (ACHN renal): 0.124 µM
TGI (ACHN renal): 13.1 µM
GI50 (CCRF-CEM leukemia): 0.105 µM
TGI (CCRF-CEM leukemia): 29.9 µM
TGI (DU-145 prostate): 12.8 µM

COC(=O)CCC(=O)C(=O)OC
GI50 (HOP-62 NSCLC): 23700 µM
GI50 (SW-620 colon): 53600 µM
GI50 (NCI-H522 lung): 13400 µM
TGI (NCI-H522 lung): 30500 µM
GI50 (NCI-H226 lung): 17300 µM
TGI (NCI-H226 lung): 65100 µM
GI50 (HCC-2998 colon): 25300 µM
TGI (HCC-2998 colon): 73000 µM
GI50 (SK-MEL-28 melanoma): 17600 µM
TGI (SK-MEL-28 melanoma): 60400 µM
GI50 (A498 renal): 18500 µM
TGI (A498 renal): 39700 µM
GI50 (ACHN renal): 16300 µM
GI50 (CCRF-CEM leukemia): 17800 µM
TGI (CCRF-CEM leukemia): 85500 µM
GI50 (DU-145 prostate): 31700 µM

O=C[C@@H](CO)O[C@H](C=O)c1c[nH]c(=O)[nH]c1=O
TGI (HOP-62 NSCLC): 258 µM
TGI (SW-620 colon): 646 µM
TGI (NCI-H522 lung): 282 µM
TGI (NCI-H226 lung): 552 µM
TGI (HCC-2998 colon): 338 µM
TGI (SK-MEL-28 melanoma): 237 µM
TGI (A498 renal): 744 µM
TGI (ACHN renal): 719 µM
TGI (CCRF-CEM leukemia): 973 µM
TGI (DU-145 prostate): 437 µM
